What was measured:
HSP90α protein = molecular target: T1, HSP90α protein (Homo sapiens, UniProt P07900); assay: HSP90α-binding FP (BODIPY) assay; conditions: FP competition with BODIPY-labeled RNK04010
T1 construct: purchased BPS Bioscience #50298
Procedure, shortened: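 Fluorescence polarization measured competition with N-terminal human HSP90α, using either FITC-geldanamycin or BODIPY-labelled triazolone RNK04010 as tracer (5 nM final each). Compounds were tested in 2.5-fold dilutions from 20 μM to 5.2 nM, with incubation at 25 °C for 120 min (FITC) or 300 min (BODIPY).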

[1] = test system: MV-4-11 human acute myeloid leukemia; assay: MV-4-11 CCK-8 proliferation assay; assay type: cell-based; conditions: Homo sapiens, MV4-11; MV-4-11 cells, 72 hr
Procedure, shortened: (§1)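 Inhibition is derived from CCK-8 absorbance of compound-treated cells relative to DMSO-treated cells, after subtracting a cell-free medium/DMSO background. Test concentrations span 20 μM down to 1.02 nM in 3-fold steps, and lines are cultured as ATCC recommends.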

[2] = test system: U-87 MG human glioblastoma; assay: U87 MG CCK-8 proliferation assay; assay type: cell-based; conditions: Homo sapiens, U-87 MG, 72 h, U-87 MG cells, read-out: U87MG CCK-8
Procedure, shortened: as §1

Row | IC50 (HSP90α protein) [nM] | EC50 [1] [nM] | EC50 [2] [nM] | SMILES
1 | > 1000 | > 1000 | > 1000 | CCOc1cc(N2CCC(C(=O)N3CCC(CN4CCN(C(=O)O[C@H]5CC[C@H](Nc6cc(-n7nc(C(F)(F)F)c8c7CC(C)(C)CC8=O)ccc6C(N)=O)CC5)CC4)CC3)CC2)ccc1Nc1ncc2c(n1)N(C)c1ccccc1C(=O)N2C [Compound 121, (1R,4R)-4-((2-carbamoyl-5-(6,6-dimethyl-4-oxo-3-(trifluoromethyl)-4,5,6,7-tetrahydro-1H-indazol-1-yl)phenyl)amino)cyclohexyl 4-((1-(1-(4-((5,11-dimethyl-6-oxo-6,11-dihydro-5H-benzo[e]pyrimido[5,4-b][1,4]diazepin-2-yl)amino)-3-ethoxyphenyl)piperidine-4-carbonyl)piperidin-4-yl)methyl)piperazine-1-carboxylate]
2 | 100 to 1000 | < 100 | 100 to 1000 | CCOc1cc(N2CCC(C(=O)N3CCC(CN4CCN(Cc5ccc(-n6c(C(=O)NC(C)C(F)(F)F)nnc6-c6cc(CC)c(O)cc6O)cc5)CC4)CC3)CC2)ccc1Nc1ncc2c(n1)N(C)c1ccccc1C(=O)N2C (stereo not drawn) [Compound 114, 4-(4-((4-((1-(1-(4-((5,11-dimethyl-6-oxo-6,11-dihydro-5H-benzo[e]pyrimido[5,4-b][1,4]diazepin-2-yl)amino)-3-ethoxyphenyl)piperidine-4-carbonyl)piperidin-4-yl)methyl)piperazin-1-yl)methyl)phenyl)-5-(5-ethyl-2,4-dihydroxyphenyl)-N-(1,1,1-trifluoropropan-2-yl)-4H-1,2,4-triazole-3-carboxamide]
3 | < 100 | < 100 | < 100 | CCOc1cc(N2CCC(C(=O)N3CCC(N4CCN(Cc5ccc(-n6c(O)nnc6-c6cc(C(C)C)c(O)cc6O)cc5F)CC4)CC3)CC2)ccc1Nc1ncc2c(n1)N(S(C)(=O)=O)c1ccccc1C(=O)N2C [Compound 059, 2-((4-(4-(4-(4-(4-(3-(2,4-dihydroxy-5-isopropylphenyl)-5-hydroxy-4H-1,2,4-triazol-4-yl)-2-fluorobenzyl)piperazin-1-yl)piperidine-1-carbonyl)piperidin-1-yl)-2-ethoxyphenyl)amino)-5-methyl-11-(methylsulfonyl)-5,11-dihydro-6H-benzo[e]pyrimido[5,4-b][1,4]diazepin-6-one]
4 | < 100 | < 100 | 100 to 1000 | CCOc1cc(N2CCC(C(=O)N3CCC(CN4CCN(Cc5ccc(-n6c(C(=O)NCC(F)(F)F)nnc6-c6cc(C)c(O)cc6O)cc5)CC4)CC3)CC2)ccc1Nc1ncc2c(n1)N(S(C)(=O)=O)c1ccccc1C(=O)N2C [Compound 081, 5-(2,4-dihydroxy-5-methylphenyl)-4-(4-((4-((1-(1-(3-ethoxy-4-((5-methyl-11-(methylsulfonyl)-6-oxo-6,11-dihydro-5H-benzo[e]pyrimido[5,4-b][1,4]diazepin-2-yl)amino)phenyl)piperidine-4-carbonyl)piperidin-4-yl)methyl)piperazin-1-yl)methyl)phenyl)-N-(2,2,2-trifluoroethyl)-4H-1,2,4-triazole-3-carboxamide]
5 | < 100 | < 100 | < 100 | CCOc1cc(N2CCC(C(=O)NCC3CCN(C(=O)C4CCN(Cc5ccc(-n6c(O)nnc6-c6cc(C(C)C)c(O)cc6O)cc5)CC4)CC3)CC2)ccc1Nc1ncc2c(n1)N(C)c1ccccc1C(=O)N2C [Compound 041, N-((1-(1-(4-(3-(2,4-dihydroxy-5-isopropylphenyl)-5-hydroxy-4H-1,2,4-triazol-4-yl)benzyl)piperidine-4-carbonyl)piperidin-4-yl)methyl)-1-(4-((5,11-dimethyl-6-oxo-6,11-dihydro-5H-benzo[e]pyrimido[5,4-b][1,4]diazepin-2-yl)amino)-3-ethoxyphenyl)piperidine-4-carboxamide]
6 | 100 to 1000 | < 100 | < 100 | CCOc1cc(N2CCC(C(=O)N3CCN(Cc4ccc(-n5c(O)nnc5-c5cc(C(C)C)c(O)cc5O)cc4)[C@H](C)C3)CC2)ccc1Nc1ncc2c(n1)N(C)c1ccccc1C(=O)N2C [Compound 051, (R)-2-((4-(4-(4-(4-(3-(2,4-dihydroxy-5-isopropylphenyl)-5-hydroxy-4H-1,2,4-triazol-4-yl)benzyl)-3-methylpiperazine-1-carbonyl)piperidin-1-yl)-2-ethoxyphenyl)amino)-5,11-dimethyl-5,11-dihydro-6H-benzo[e]pyrimido[5,4-b][1,4]diazepin-6-one]
7 | 100 to 1000 | 100 to 1000 | > 1000 | CCOc1cc(N2CCC(C(=O)N3CCN(CCOc4ccc(Nc5cc(-n6nc(C(F)(F)F)c7c6CC(C)(C)CC7=O)ccc5C(N)=O)cc4)CC3)CC2)ccc1Nc1ncc2c(n1)N(S(C)(=O)=O)c1ccccc1C(=O)N2C [Compound 094, 4-(6,6-dimethyl-4-oxo-3-(trifluoromethyl)-4,5,6,7-tetrahydro-1H-indazol-1-yl)-2-((4-(2-(4-(1-(3-ethoxy-4-((5-methyl-11-(methylsulfonyl)-6-oxo-6,11-dihydro-5H-benzo[e]pyrimido[5,4-b][1,4]diazepin-2-yl)amino)phenyl)piperidine-4-carbonyl)piperazin-1-yl)ethoxy)phenyl)amino)benzamide]
8 | < 100 | < 100 | < 100 | CCOc1cc(N2CCC(C(=O)N3CCC(CN4CCC(Cc5ccc(-n6c(O)nnc6-c6cc(C(C)C)c(O)cc6O)cc5)CC4)CC3)CC2)ccc1Nc1ncc2c(n1)N(C)c1ccccc1C(=O)N2C [Compound 044, 2-((4-(4-(4-((4-(4-(3-(2,4-dihydroxy-5-isopropylphenyl)-5-hydroxy-4H-1,2,4-triazol-4-yl)benzyl)piperidin-1-yl)methyl)piperidine-1-carbonyl)piperidin-1-yl)-2-ethoxyphenyl)amino)-5,11-dimethyl-5,11-dihydro-6H-benzo[e]pyrimido[5,4-b][1,4]diazepin-6-one]
9 | > 1000 | 100 to 1000 | > 1000 | CCOc1cc(N2CCC(C(=O)N3CCN(C(=O)O[C@H]4CC[C@H](Nc5cc(-n6nc(C(F)(F)F)c7c6CC(C)(C)CC7=O)ccc5C(N)=O)CC4)CC3)CC2)ccc1Nc1ncc2c(n1)N(S(C)(=O)=O)c1ccccc1C(=O)N2C [Compound 106, (1R,4R)-4-((2-carbamoyl-5-(6,6-dimethyl-4-oxo-3-(trifluoromethyl)-4,5,6,7-tetrahydro-1H-indazol-1-yl)phenyl)amino)cyclohexyl 4-(1-(3-ethoxy-4-((5-methyl-11-(methylsulfonyl)-6-oxo-6,11-dihydro-5H-benzo[e]pyrimido[5,4-b][1,4]diazepin-2-yl)amino)phenyl)piperidine-4-carbonyl)piperazine-1-carboxylate]

From patent publication US20240124460A1, “METHODS AND COMPOSITIONS FOR TARGETED PROTEIN DEGRADATION” (Ranok Therapeutics (Hangzhou) Co. Ltd., priority 2020, published 2024)
